Laboratory results from patent US20200017496A1 (priority 2017, published 2020).
Like-named read-outs stand apart in the source and are kept apart here.

Experiments:
[1] = tested on: Citrobacter freundii (CFR) isolates; test: MIC of compounds alone and combined with antibacterials, broth microdilution (CLSI); type: cell-based; settings: for MIC: Citrobacter freundii, read-out: MIC
Procedure, shortened: (§1)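 Compound MIC, and antibacterial MIC at each fixed compound level, taken by visual inspection as lowest concentration stopping growth. Inoculum: log-phase bacteria, final 5·10^5 CFU/mL, cation-adjusted Mueller-Hinton broth; 16-20 h, 35° C, ambient air.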

[2] = tested on: Enterobacter cloacae (ECL) isolates; test: as above; type: cell-based; settings: for MIC: Enterobacter cloacae
Procedure, shortened: as §1

With `C=CC1=C(C(=O)O)N2C(=O)[C@@H](NC(=O)/C(=N\OCC(=O)O)c3csc(N)n3)[C@H]2SC1` [FIX, Cefixime] the “MIC ATB in combination” value [1] was over 128 µg/mL, the “MIC ATB in combination” value ([1]; CFR UFR10, AF1 @ 4 μg/mL) was “<=0.25 μg/mL” and the “MIC ATB in combination” value ([1]; CFR UFR10, AF1 @ 8 μg/mL) was “<=0.25 μg/mL”. For the same compound, the “MIC ATB in combination” value ([1]; CFR UFR11, AF1 @ 4 μg/mL) was 8 µg/mL, the “MIC ATB in combination” value ([1]; CFR UFR11, AF1 @ 8 μg/mL) was 4 µg/mL and the “MIC ATB in combination” value ([1]; CFR UFR83, AF1 @ 8 μg/mL) was 128 µg/mL. The “MIC ATB in combination” value ([1]; CFR UFR146, AF1 @ 4 μg/mL) was 1 µg/mL, the “MIC ATB in combination” value ([1]; CFR UFR146, AF1 @ 8 μg/mL) was 1 µg/mL and the “MIC ATB in combination” value ([1]; CFR UFR248, AF1 @ 4 μg/mL) was “<=0.25 μg/mL”. For the same compound, the “MIC ATB in combination” value ([1]; CFR UFR248, AF1 @ 8 μg/mL) was “<=0.25 μg/mL”, the “MIC ATB in combination” value ([1]; CFR UFR249, AF1 @ 4 μg/mL) was “<=0.25 μg/mL” and the “MIC ATB in combination” value ([1]; CFR UFR249, AF1 @ 8 μg/mL) was “<=0.25 μg/mL”. The “MIC ATB in combination” value ([1]; CFR UFR250, AF1 @ 4 μg/mL) was “<=0.25 μg/mL”, the “MIC ATB in combination” value ([1]; CFR UFR250, AF1 @ 8 μg/mL) was “<=0.25 μg/mL” and the MIC ([1]; ATB alone, strain CFR UFR253 (TEM-1, SHV-12, OXA-48)) was over 128 µg/mL. It also gave an MIC ([1]; ATB alone, strain CFR UFR254 (VEB-1b, OXA-48, qnrA)) of 32 µg/mL, an MIC ([1]; ATB combined with CLA @ 4 μg/ml, strain CFR UFR253 (TEM-1, SHV-12, OXA-48)) of over 128 µg/mL and an MIC ([1]; ATB combined with CLA @ 4 μg/ml, strain CFR UFR254 (VEB-1b, OXA-48, qnrA)) of 16 µg/mL. It also gave an MIC ([1]; CFR UFR250, alone) of over 128 µg/mL, an MIC ([1]; strain CFR UFR10 (OXA-48), ATB alone) of over 128 µg/mL and an MIC ([1]; strain CFR UFR10 (OXA-48), CLA @ 4 μg/ml+ ATB) of 32 µg/mL. The MIC ([1]; strain CFR UFR11 (TEM-1, OXA-1, OXA-48), ATB alone) was 32 µg/mL, the MIC ([1]; strain CFR UFR11 (TEM-1, OXA-1, OXA-48), CLA @ 4 μg/ml+ ATB) was 32 µg/mL and the MIC ([1]; strain CFR UFR83 (TEM-3, AmpC), ATB alone) was over 128 µg/mL. It also gave an MIC ([1]; strain CFR UFR83 (TEM-3, AmpC), CLA @ 4 μg/ml+ ATB) of over 128 µg/mL, an MIC ([1]; strain CFR UFR146 (TEM-1, KPC-2), ATB alone) of 64 µg/mL and an MIC ([1]; strain CFR UFR146 (TEM-1, KPC-2), CLA @ 4 μg/ml+ ATB) of 64 µg/mL. For the same compound, the MIC ([1]; strain CFR UFR248 (CTX-M-15), ATB alone) was over 128 µg/mL, the MIC ([1]; strain CFR UFR248 (CTX-M-15), CLA @ 4 μg/ml+ ATB) was 4 µg/mL and the MIC ([1]; strain CFR UFR249 (TEM-1, CTX-M-15), ATB alone) was over 128 µg/mL. It also gave an MIC ([1]; strain CFR UFR249 (TEM-1, CTX-M-15), CLA @ 4 μg/ml+ ATB) of 2 µg/mL, an MIC ([1]; strain CFR UFR250 (TEM-1, SHV-28, CTX-M-15), ATB alone) of over 128 µg/mL and an MIC ([1]; strain CFR UFR250 (TEM-1, SHV-28, CTX-M-15), CLA @ 4 μg/ml+ ATB) of 2 µg/mL. For the same compound, the “MIC ATB in combination” value ([1]; strain CFR UFR253, antibacterial combined with AF1 @ 4 μg/mL) was 32 µg/mL, the “MIC ATB in combination” value ([1]; strain CFR UFR253, antibacterial combined with AF1 @ 8 μg/mL) was 16 µg/mL and the “MIC ATB in combination” value ([1]; strain CFR UFR254, antibacterial combined with AF1 @ 4 μg/mL) was 0.5 µg/mL. The “MIC ATB in combination” value ([1]; strain CFR UFR254, antibacterial combined with AF1 @ 8 μg/mL) was “<=0.25 μg/mL”, the “MIC ATB in combination” value ([2]; ECL 2185D, AF1 @ 4 μg/mL) was over 128 µg/mL and the “MIC ATB in combination” value ([2]; ECL 2185D, AF1 @ 8 μg/mL) was 64 µg/mL. The “MIC ATB in combination” value ([2]; ECL 190310, AF1 @ 4 μg/mL) was 64 µg/mL, the “MIC ATB in combination” value ([2]; ECL 190310, AF1 @ 8 μg/mL) was 32 µg/mL and the “MIC ATB in combination” value ([2]; ECL 190408, AF1 @ 4 μg/mL) was 0.5 µg/mL. For the same compound, the “MIC ATB in combination” value ([2]; ECL 190408, AF1 @ 8 μg/mL) was 0.25 µg/mL, the “MIC ATB in combination” value ([2]; ECL 200138, AF1 @ 4 μg/mL) was 64 µg/mL and the “MIC ATB in combination” value ([2]; ECL 200138, AF1 @ 8 μg/mL) was 16 µg/mL. The “MIC ATB in combination” value ([2]; ECL 200322, AF1 @ 4 μg/mL) was 0.5 µg/mL, the “MIC ATB in combination” value ([2]; ECL 200322, AF1 @ 8 μg/mL) was 0.25 µg/mL and the “MIC ATB in combination” value ([2]; ECL 260033, AF1 @ 4 μg/mL) was over 128 µg/mL. For the same compound, the “MIC ATB in combination” value ([2]; ECL 260033, AF1 @ 8 μg/mL) was 2 µg/mL, the “MIC ATB in combination” value ([2]; ECL 260253, AF1 @ 4 μg/mL) was 8 µg/mL and the “MIC ATB in combination” value ([2]; ECL 260253, AF1 @ 8 μg/mL) was 8 µg/mL. For the same compound, the “MIC ATB in combination” value ([2]; ECL 260323, AF1 @ 4 μg/mL) was 64 µg/mL, the “MIC ATB in combination” value ([2]; ECL 260323, AF1 @ 8 μg/mL) was 32 µg/mL and the “MIC ATB in combination” value ([2]; ECL 260508, AF1 @ 4 μg/mL) was “<=0.25 μg/mL”. The “MIC ATB in combination” value ([2]; ECL 260508, AF1 @ 8 μg/mL) was “<=0.25 μg/mL”, the “MIC ATB in combination” value ([2]; ECL NEM146383, AF1 @ 4 μg/mL) was 32 µg/mL and the “MIC ATB in combination” value ([2]; ECL NEM146383, AF1 @ 8 μg/mL) was 16 µg/mL. The “MIC ATB in combination” value ([2]; ECL P99, AF1 @ 4 μg/mL) was 16 µg/mL, the “MIC ATB in combination” value ([2]; ECL P99, AF1 @ 8 μg/mL) was 1 µg/mL and the “MIC ATB in combination” value ([2]; ECL UFR12, AF1 @ 4 μg/mL) was “<=0.25 μg/mL”. The “MIC ATB in combination” value ([2]; ECL UFR12, AF1 @ 8 μg/mL) was “<=0.25 μg/mL”, the “MIC ATB in combination” value ([2]; ECL UFR13, AF1 @ 4 μg/mL) was 8 µg/mL and the “MIC ATB in combination” value ([2]; ECL UFR13, AF1 @ 8 μg/mL) was 8 µg/mL. The “MIC ATB in combination” value ([2]; ECL UFR14, AF1 @ 4 μg/mL) was 16 µg/mL, the “MIC ATB in combination” value ([2]; ECL UFR14, AF1 @ 8 μg/mL) was 8 µg/mL and the “MIC ATB in combination” value ([2]; ECL UFR60, AF1 @ 4 μg/mL) was 4 µg/mL. For the same compound, the “MIC ATB in combination” value ([2]; ECL UFR60, AF1 @ 8 μg/mL) was 4 µg/mL, the “MIC ATB in combination” value ([2]; ECL UFR70, AF1 @ 4 μg/mL) was 16 µg/mL and the “MIC ATB in combination” value ([2]; ECL UFR70, AF1 @ 8 μg/mL) was 2 µg/mL. The “MIC ATB in combination” value ([2]; ECL UFR84, AF1 @ 4 μg/mL) was 64 µg/mL, the “MIC ATB in combination” value ([2]; ECL UFR84, AF1 @ 8 μg/mL) was 16 µg/mL and the “MIC ATB in combination” value ([2]; ECL UFR85, AF1 @ 4 μg/mL) was 8 µg/mL. For the same compound, the “MIC ATB in combination” value ([2]; ECL UFR85, AF1 @ 8 μg/mL) was 0.5 µg/mL, the “MIC ATB in combination” value ([2]; ECL UFR194, AF1 @ 4 μg/mL) was 1 µg/mL and the “MIC ATB in combination” value ([2]; ECL UFR194, AF1 @ 8 μg/mL) was 2 µg/mL. The “MIC ATB in combination” value ([2]; ECL UFR200, AF1 @ 4 μg/mL) was 1 µg/mL, the “MIC ATB in combination” value ([2]; ECL UFR200, AF1 @ 8 μg/mL) was 0.5 µg/mL and the MIC ([2]; ATB alone, strain ECL UFR197 (TEM-1, CTX-M-15, OXA-1, OXA-48)) was over 128 µg/mL. It also gave an MIC ([2]; ATB alone, strain ECL UFR198 (TEM-1, SHV-12, CTX-M-15, DHA-1, OXA-1, OXA-48)) of over 128 µg/mL, an MIC ([2]; ATB combined with CLA @ 4 μg/ml, strain ECL UFR197 (TEM-1, CTX-M-15, OXA-1, OXA-48), read-out: MIC) of 128 µg/mL and an MIC ([2]; ATB combined with CLA @ 4 μg/ml, strain ECL UFR198 (TEM-1, SHV-12, CTX-M-15, DHA-1, OXA-1, OXA-48)) of over 128 µg/mL. The MIC ([2]; strain ECL 2185D (OXA-163), ATB alone) was over 128 µg/mL.
